Columns and labels:
[1] = test system: tumor cells (mastocytome); experiment: Antitumor effect of peritoneal macrophages activated in vivo; assay type: cell-based; conditions: macrophages of mice injected intraperitoneally with 30 μg, recovered 4 days later, incubated with tumor cells
Experimental: The following test takes advantage of the finding made by several authors that macrophages become cytotoxic with respect to neoplasic cells, when they have previously been activated by immuno-adjuvant substances.
Two groups of three mice were injected intraperitoneally with 30 μg of each of the substances respectively. The mice were sacrificed 4 days later. There macrophages were recovered according to the technique of D. Juy, C. Bona and L. Chedid, C. R. Acad. Sc. Paris, 1974, 268, Serie D, 1859 and incubated in the presence of tumor cells (mastocytome).
The inhibition of the mastocytome increase was measured by reference to the reduced incorporation of radioactive thymidine as compared to that of controls.

[2] = test system: Female Hartley guinea-pigs; experiment: Delayed hypersensitivity to ovalbumin (cutaneous reaction); assay type: in vivo, guinea-pig; conditions: Table 2, adjuvant dose 25 μg
Experimental: The delayed hypersensitivity to ovalbumin was measured by cutaneous reaction four weeks after injection; it is expressed by the diameter in millimeters of the erythema (E), of the induration (I) or the necrosis (N), forty-eight hours after sub-cutaneous injection of 10 or 100 μg of ovalbumin.

mastocytome = experiment: Activation of macrophages in vitro (cytotoxicity with respect to the mastocytome); assay type: cell-based; conditions: incubated directly with normal macrophages and with macrophages from an inflammatory peritoneal exsudate (both cases)
Experimental: The activity of the muramyl-dipeptide was measured by directly incubating it with both normal macrophages and macrophages originating from an inflammatory peritoneal exsudate.

[3] = test system: Female Hartley guinea-pigs; experiment: Adjuvant activity: rates of antibodies with respect to ovalbumin after injection with incomplete Freund adjuvant and ovalbumin; assay type: in vivo, guinea-pig; conditions: Table 2; dose 25 μg/animal
Experimental: Female Hartley guinea-pigs of 300-350 g received, in the plantar pad of each of the two rear paws, an emulsion composed of equal parts of incomplete Freund adjuvant and a physiological solution containing ovalbumin (5 mg/guinea-pig) and the preparation to be tested. The incomplete Freund adjuvant (FIA) (that is to say not containing mycobacteria), is the complete adjuvant (FCA) marketed by the DIFCO company were used as controls.
The rates of antibodies with respect to ovalbumin were determined three weeks after injection. The antibody rate is expressed in μg/ml of serum of the antigen-antibody precipitate at the point of equivalents.

guinea pigs = experiment: Delayed hypersensitivity with respect to the substances in guinea pigs treated with Freund's complete adjuvant; assay type: in vivo, guinea pig; conditions: 5 and 10 μg in the dermis of guinea pigs, three weeks after ovalbumine with FIA or FCA
Experimental: Three groups of guinea pigs were injected (in their foot pads) with 1 mg of ovalbumine together with:
(a) Freund's incomplete adjuvant (FIA) and
(b) Freund's complete adjuvent (FCA) respectively.
The delayed hypersensitivity was measured by subcutaneous reaction three weeks thereafter, by injecting 5 mg of ovalbumine and of 5 and 10 μg of either the substance BB and the muramyl-dipeptide in the dermis of the animals.

surrenalectomized mice = experiment: Toxicity in surrenalectomized mice; assay type: in vivo; conditions: 30 μg dosage

With CC(=O)N[C@@H]1[C@@H](O[C@H](C)C(=O)N[C@@H](C)C(=O)N[C@H](CCC(=O)O)C(N)=O)[C@H](O)[C@@H](CO)O[C@H]1O [N-acetylmuramyl-L-Ala-D-Glu-NH2, 2-(2-acetamido-2-desoxy-3-O-D-glucopyranosyl)-D-propionyl-L-Ala-(γ-OH)-D-α-Glu NH2] the “Inhibition of the mastocytome increase (reduced incorporation of radioactive thymidine compared to controls)” value [1] was 84%, the “Delayed Hypersensitivity, erythema (E)” value ([2]; 10 μg ovalbumin injection) was 9 millimeters and the “Delayed Hypersensitivity, erythema (E)” value ([2]; 100 μg ovalbumin injection) was 17 millimeters. The “Increase in vitro of the cytotoxicity of the macrophages with respect to the mastocytome” value (mastocytome) was “capable of increasing in vitro the cytotoxicity of the macrophages”, the “Antibody/antiovalbumin, Average” value [3] was 5210 µg/mL and the “Antibody/antiovalbumin, animal 1” value [3] was 5280 µg/mL. For the same compound, the “Antibody/antiovalbumin, animal 2” value [3] was 6000 µg/mL, the “Antibody/antiovalbumin, animal 3” value [3] was 2960 µg/mL and the “Antibody/antiovalbumin, animal 4” value [3] was 6880 µg/mL. For the same compound, the “Antibody/antiovalbumin, animal 5” value [3] was 4960 µg/mL, the “Delayed hypersensitivity reaction to the substance” value (guinea pigs) was “dit not induce any detectable reaction” and the Toxicity (surrenalectomized mice) was “no detectable toxicity”.

Reference: patent US4186194A (priority 1973, dated 1980)
